In patent US20190144423A1, “AMIDE-SUBSTITUTED PYRIDINYLTRIAZOLE DERIVATIVES AND USES THEREOF” (BAYER PHARMA AKTIENGESELLSCHAFT, priority 2016, published 2019) one finds IC50 data, which are given here for 1 molecule.

One experiment addresses T1, human V1a receptor (Homo sapiens, UniProt P37288).
T1 construct: expressed in transfected cells; host or cells: CHO K1 (ATCC), also stably transfected with a modified aequorin
The experiment can be described thus: Cellular in vitro assay for determining vasopressin receptor activity (V1a cell line, aequorin luminescence). Format: cell-based. To be noted: CHO cell line transfected with human V1a receptor; antagonism of [Arg8]-vasopressin at EC50; Table 1A, compounds of the invention; read-out: IC50 hV1a. The protocol:
(§1) B-1. Cellular In Vitro Assay for Determining Vasopressin Receptor Activity
(§2) The identification of agonists and antagonists of the V1a and V2 vasopressin receptors from humans, rats and dogs as well as the quantification of the activity of the compounds of the invention is carried out using recombinant cell lines. These cell lines originally derive from a hamster's ovary epithelial cell (Chinese Hamster Ovary, CHO K1, ATCC: American Type Culture Collection, Manassas, Va. 20108, USA). The test cell lines constitutively express the human, rat or dog V1a or V2 receptors. In case of the Gαq-coupled V1a receptors, cells are also stably transfected with a modified form of the calcium-sensitive photoproteins aequorin (human and rat V1a) or obelin (dog V1a), which, after reconstitution with the cofactor coelenterazine, emit light when there are increases in free calcium concentrations [Rizzuto R, Simpson A W, Brini M, Pozzan T, Nature 358, 325-327 (1992); Illarionov B A, Bondar V S, Illarionova V A, Vysotski E S, Gene 153 (2), 273-274 (1995)]. The resulting vasopressin receptor cells react to stimulation of the recombinantly expressed V1a receptors by intracellular release of calcium ions, which can be quantified by the resulting photoprotein luminescence. The Gs-coupled V2 receptors are stably transfected into cell lines expressing the gene for firefly luciferase under control of a CRE-responsible promoter. Activation of V2 receptors induces the activation of the CRE-responsive promoter via cAMP increase, thereby inducing the expression of firefly luciferase. The light emitted by photoproteins of V1a cell lines as well as the light emitted by firefly luciferase of V2 cell lines corresponds to the activation or inhibition of the respective vasopressin receptor. The bioluminescence of the cell lines is detected using a suitable luminometer [Milligan G, Marshall F, Rees S, Trends in Pharmacological Sciences 17, 235-237 (1996)].
Vasopressin V1a Receptor Cell Lines:
On the day before the assay, the cells are plated out in culture medium (DMEM/F12, 2% FCS, 2 mM glutamine, 10 mM HEPES, 5 μg/ml coelenterazine) in 384-well microtiter plates and kept in a cell incubator (96% humidity, 5% v/v CO2, 37° C.). On the day of the assay, test compounds in various concentrations are placed for 10 minutes in the wells of the microtiter plate before the agonist [Arg^8]-vasopressin at EC50 concentration is added. The resulting light signal is measured immediately in a luminometer.
(§3) Table 1A below lists individual IC50 values for the compounds of the invention (including racemic mixtures as well as separated enantiomers) that were obtained from cell lines transfected with the human V1a or V2 receptor: […]

Another experiment has as its target T2, human V2 receptor (Homo sapiens, UniProt P30518).
T2 construct: expressed in transfected cells; host or cells: CHO K1 (ATCC) line expressing firefly luciferase under a CRE-responsive promoter
The experiment can be described thus: Cellular in vitro assay for determining vasopressin receptor activity (V2 cell line, CRE-luciferase). Type of experiment: cell-based. To be noted: CHO cell line transfected with human V2 receptor; antagonism of [Arg8]-vasopressin at EC50; Table 1A, compounds of the invention; read-out: IC50 hV2. The protocol:
as §1, §2
Vasopressin V2 Receptor Cell Lines:
On the day before the assay, the cells are plated out in culture medium (DMEM/F12, 2% FCS, 2 mM glutamine, 10 mM HEPES) in 384-well microtiter plates and kept in a cell incubator (96% humidity, 5% v/v CO2, 37° C.). On the day of the assay, test compounds in various concentrations and the agonist [Arg^s]-vasopressin at EC50 concentration are added together to the wells, and plates are incubated for 3 hours in a cell incubator. Upon addition of the cell lysis reagent Triton™ and the substrate luciferin, luminescence of firefly luciferase is measured in a luminometer.
as §3

pIC50: −log10 of the molar value.

T1 sequence (P37288 whole entry): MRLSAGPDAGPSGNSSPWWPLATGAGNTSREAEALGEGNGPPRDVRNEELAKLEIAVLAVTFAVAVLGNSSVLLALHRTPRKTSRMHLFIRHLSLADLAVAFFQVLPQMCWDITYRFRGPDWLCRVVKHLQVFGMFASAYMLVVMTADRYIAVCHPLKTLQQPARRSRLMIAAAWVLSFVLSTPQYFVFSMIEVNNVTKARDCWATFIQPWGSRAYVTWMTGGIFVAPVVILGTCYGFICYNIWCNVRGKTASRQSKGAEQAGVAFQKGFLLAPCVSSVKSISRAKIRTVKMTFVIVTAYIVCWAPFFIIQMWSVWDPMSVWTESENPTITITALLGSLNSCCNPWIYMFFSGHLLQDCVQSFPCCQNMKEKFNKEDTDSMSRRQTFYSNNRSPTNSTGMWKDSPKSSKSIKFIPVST
T2 sequence (P30518 whole entry): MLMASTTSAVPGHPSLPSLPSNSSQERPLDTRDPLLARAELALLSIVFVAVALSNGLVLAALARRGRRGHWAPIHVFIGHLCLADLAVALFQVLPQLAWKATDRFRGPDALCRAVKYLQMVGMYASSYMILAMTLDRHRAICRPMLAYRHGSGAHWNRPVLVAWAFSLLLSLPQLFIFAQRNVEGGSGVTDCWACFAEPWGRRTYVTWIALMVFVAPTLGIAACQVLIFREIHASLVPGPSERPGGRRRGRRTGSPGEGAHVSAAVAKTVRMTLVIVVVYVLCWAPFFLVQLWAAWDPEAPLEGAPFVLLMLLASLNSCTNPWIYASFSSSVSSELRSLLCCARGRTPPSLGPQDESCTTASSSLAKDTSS

Consider `NC(=O)c1nc(Cn2nc(-c3ccc(Cl)cc3)n(C[C@H](O)C(F)(F)F)c2=O)nn1-c1ncccc1Cl` [Example 1, 3-({3-(4-Chlorophenyl)-5-oxo-4-[(2S)-3,3,3-trifluoro-2-hydroxypropyl]-4,5-dihydro-1H-1,2,4-triazol-1-yl}methyl)-1-(3-chloropyridin-2-yl)-1H-1,2,4-triazole-5-carboxamide], for which the pIC50 – broadly, the IC50 on a negative log10 scale, so that one unit is a factor of ten – at human V1a receptor was 8.99; at human V2 receptor it was 7.41.
